Test results: patent publication US20240316027A1, “USE OF MARAVIROC IN PREPARATION OF DRUGS FOR TREATMENT OF MUSCLE DEGENERATIVE DISEASES” (Center for Neuromusculoskeletal Restorative Medicine Limited, priority 2023, published 2024)

Legend:
[1] = Phase IIa study; cited from earlier work
[2] = test system: dKO mice; experiment: Maraviroc treatment of dystrophic dKO (YY1; mdx) and Ctrl mice, DMD mouse model; format: in vivo; conditions: for voluntary exercise (running distance on exercise wheels): recorded daily for one week, FIG. 6
From the text: The research object of this invention is based on a mouse model of human Duchenne muscular dystrophy (DMD), a congenital mutation in the muscular dystrophy protein leading to spontaneous periodic muscle damage and repair. Chronic inflammation and fibrosis are typical hallmarks of DMD and may contribute to impaired skeletal muscle regeneration. […] These YY1; mdx mice (so called double knock out dKO) display decreased body and muscle weight, severe inflammation and fibrosis, and reduced lifespan. As illustrated in FIGS. 1A-1D, the body weights are continuously monitored and measured at 3M, 5M and 7M intervals and the dKO mice show continuous weight loss compared to Ctrl mice (see FIG. 1A) as time progresses. Furthermore, the reduction in muscle weight (tibialis anterior) and thickness (diaphragm) is also observed over time in contrast to Ctrl mice (see FIG. 1B). […] Meanwhile, excessive inflammation is observed on the dKO muscles as shown by the amount of immune cells infiltration in the interstitial area (see FIG. 1C), along with aggravated fibrosis (detected by Masson's Trichrome staining, see FIG. 1D).
To test the therapeutic effect of Maraviroc on the dystrophic muscles, the above-described Ctrl and dKO mice are treated with dimethyl sulfoxide (DMSO) or Maraviroc respectively.
Next, the muscle morphology is evaluated on the above-treated four groups of mice.
Next it is examined if the treatment improves muscle functions by testing the muscle performance in exercises. Both endurance and voluntary exercises are employed. For endurance exercise, mice are first placed in a treadmill machine, where the bottom of the running track is equipped with an electric shock device to force the mice to continue running as illustrated in FIG. 5. The initial speed is set to 10 cm/s and increased by 5 cm/s every two minutes. By recording the running distance until the mice are exhausted, their endurance strength is determined. […] For voluntary exercise, the mice are placed in cages equipped with exercise wheels, which are connected to counters that accurately record the distance travelled by the mice on the wheels, as illustrated in FIG. 6. The mice are continuously housed in the cages for one week, and their exercise distance on the wheels is recorded daily.

[3] = test system: aged mice with sarcopenia; experiment: Maraviroc treatment of aged mice with sarcopenia; format: in vivo, mouse; conditions: 16-month-old mice, 2.5 mg/kg intraperitoneally twice a week for 6 months
Protocol: Next, to further illustrate the possible application for treating other muscle degenerative diseases, the effectiveness of Maraviroc is tested in aged mice with sarcopenia. 3 pairs of 16-month-old mice are intraperitoneally injected with vehicle (5% DMSO) or Maraviroc (2.5 mg/kg) twice a week for 6 months, as shown in FIG. 7. […] Overall, the Maraviroc treatment delays muscle aging and rejuvenates the mice.

[4] = dKO mice, 60 ug in 5% DMSO intraperitoneally every two days for one month, FIG. 2

Cc1nnc(C(C)C)n1[C@@H]1C[C@H]2CC[C@@H](C1)N2CC[C@H](NC(=O)C1CCC(F)(F)CC1)c1ccccc1 [Maraviroc]
efficacy in the treatment of RA [1]: no efficacy
muscle morphology, immune cell infiltration and inflammation (H&E staining of TA muscles) ([2]; Ctrl and dKO muscles, FIG. 3): improved morphology with reduced immune cell infiltration and inflammation
effect on body weight of Ctrl mice ([2]; Ctrl mice, 60 ug intraperitoneally every two days for one month, FIG. 2): no obvious effect
voluntary exercise (running distance on exercise wheels) ([2]; Ctrl mice): high level of voluntary exercise
endurance strength (treadmill running distance until exhausted) ([2]; dKO mice, versus dKO mice treated with DMSO, FIG. 5): significantly higher
body weight [2, 4]: significantly restored
muscle weight [2, 4]: significantly restored
muscle fibrosis (Masson's Trichrome staining) ([2]; dKO mice, FIG. 4): significantly alleviate
voluntary exercise (running distance on exercise wheels) ([2]; dKO mice): consistent increase in running distance over time
TA muscle weight ([3]; FIG. 8): restored
fiber size ([3]; FIG. 8): increased
inflammation ([3]; FIG. 8): attenuated
muscle morphology (H&E staining) ([3]; FIG. 8): remarkable improvement
muscle functions (grip force and treadmill running) ([3]; FIG. 9): restored
number of FAPs and macrophages ([3]; FIG. 10): reduced number
number of MuSCs ([3]; FIG. 10): increased number
